Test results taken from patent EP2140864A2 (H. Lundbeck A/S, priority 2001, dated 2002).

Molecular target: T1, human 5HT1B (Homo sapiens, UniProt P28222)
T1 construct: expressed in transfected cells
Experiment: Radioligand binding, 5HT1B receptor ([3H]-serotonin)
Details: Table 7; read-out: h5HT1B Ki
Description: Human 5HT1B, 5HT1D, 5HT1E, 5HT1F, and 5HT7 Receptors: The cell lysates of LM(tk-) clonal cell line stably transfected with the genes encoding each of these 5HT receptor-subtypes were prepared as described above. Cell membranes were suspended in 50mM Tris-HCl buffer (pH 7.4 at 37°C) containing 10 mM MgCl2, 0.2 mM EDTA, 10 µM pargyline, and 0.1% ascorbate. […] Nonspecific binding was determined in the presence of 10 µM serotonin. The bound radioligand was separated by filtration through GF/B filters using a cell harvester.
(§1) Binding data were analyzed using nonlinear regression and statistical techniques available in the GraphPAD Prism package (San Diego, CA). Enzymatic assay data were derived from a standard curve of reference compound data.

T1 sequence (P28222 whole entry): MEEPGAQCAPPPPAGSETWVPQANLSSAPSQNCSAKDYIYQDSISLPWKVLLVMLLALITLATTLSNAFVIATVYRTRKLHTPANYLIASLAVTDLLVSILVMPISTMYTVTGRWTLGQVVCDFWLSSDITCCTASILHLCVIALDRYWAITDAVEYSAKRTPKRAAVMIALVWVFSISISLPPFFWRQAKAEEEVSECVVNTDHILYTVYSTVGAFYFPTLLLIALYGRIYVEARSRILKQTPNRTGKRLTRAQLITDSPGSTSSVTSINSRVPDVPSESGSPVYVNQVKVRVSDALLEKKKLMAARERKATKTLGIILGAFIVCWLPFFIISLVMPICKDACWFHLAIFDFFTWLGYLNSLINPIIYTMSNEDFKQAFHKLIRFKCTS

Row | Compound | Ki [nM]
1 | Cc1ccc(Nc2cc(N3CCCCC3)nc(N(C)CCc3c[nH]c4ccccc34)n2)cc1 [Example 11] | 101
2 | CN(CCc1c[nH]c2ccccc12)c1nc(Nc2ccc(F)c(F)c2)cc(N2CCCCC2)n1 [Example 15] | 487
3 | Cc1ccc(Nc2cc(N(C)C)nc(N(C)CCc3c[nH]c4ccccc34)n2)cc1 [Example 77] | 365
4 | O=C1C(=Nc2cccc(Cl)c2)c2ccccc2N1c1ccccc1 [Example 94, 3-[(3-CHLOROPHENYL)IMINO]-1-PHENYL-1,3-DIHYDRO-2H-INDOL-2-ONE] | 3350

Same assay, conditions: Table 8; Ki h5HT1B divided by Ki hGAL3

Row | Compound | selectivity ratio h5HT1B
5 | Cc1ccc(Nc2cc(N3CCCCC3)nc(N(C)CCc3c[nH]c4ccccc34)n2)cc1 [Example 11] | 1
6 | CN(CCc1c[nH]c2ccccc12)c1nc(Nc2ccc(F)c(F)c2)cc(N2CCCCC2)n1 [Example 15] | 7
7 | Cc1ccc(Nc2cc(N(C)C)nc(N(C)CCc3c[nH]c4ccccc34)n2)cc1 [Example 77] | 5
8 | O=C1C(=Nc2cccc(Cl)c2)c2ccccc2N1c1ccccc1 [Example 94, 3-[(3-CHLOROPHENYL)IMINO]-1-PHENYL-1,3-DIHYDRO-2H-INDOL-2-ONE] | >30

Molecular target: T2, rat 5HT2C receptor (Rattus norvegicus, UniProt P08909)
T2 construct: expressed in transfected cells
T2 sequence (P08909 33-460): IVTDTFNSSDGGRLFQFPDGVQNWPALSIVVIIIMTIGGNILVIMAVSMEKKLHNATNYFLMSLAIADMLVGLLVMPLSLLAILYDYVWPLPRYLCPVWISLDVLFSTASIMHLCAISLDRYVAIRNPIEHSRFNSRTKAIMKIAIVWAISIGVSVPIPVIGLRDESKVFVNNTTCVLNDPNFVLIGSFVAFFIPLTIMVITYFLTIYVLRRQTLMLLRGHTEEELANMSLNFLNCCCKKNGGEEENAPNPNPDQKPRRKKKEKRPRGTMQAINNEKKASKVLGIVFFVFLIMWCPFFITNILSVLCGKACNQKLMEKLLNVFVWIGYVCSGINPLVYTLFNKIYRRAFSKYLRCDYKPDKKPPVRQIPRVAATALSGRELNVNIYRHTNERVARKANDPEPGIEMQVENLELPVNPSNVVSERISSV
Experiment: Radioligand binding, 5HT2C receptor
Details: Table 7; read-out: r5HT2C Ki
Description: Other 5-HT Receptors: Other serotonin receptor binding assays were performed according to published methods: rat 5HT2C receptor (Julius et al., 1988); and 5-HT6 (Monsma, et al., 1993). The binding assays using the 5-HT4 receptor were performed according to the procedures described in U.S. Patent No. 5,766,879, the disclosure of which is hereby incorporated by reference in its entirety into this application.
as §1

Row | Compound | Ki [nM]
9 | Cc1ccc(Nc2cc(N3CCCCC3)nc(N(C)CCc3c[nH]c4ccccc34)n2)cc1 [Example 11] | 802
10 | CN(CCc1c[nH]c2ccccc12)c1nc(Nc2ccc(F)c(F)c2)cc(N2CCCCC2)n1 [Example 15] | 572
11 | Cc1ccc(Nc2cc(N(C)C)nc(N(C)CCc3c[nH]c4ccccc34)n2)cc1 [Example 77] | 456
12 | O=C1C(=Nc2cccc(Cl)c2)c2ccccc2N1c1ccccc1 [Example 94, 3-[(3-CHLOROPHENYL)IMINO]-1-PHENYL-1,3-DIHYDRO-2H-INDOL-2-ONE] | 4100

Same assay, conditions: Table 8; Ki r5HT2C divided by Ki hGAL3

Row | Compound | selectivity ratio r5HT2C
13 | Cc1ccc(Nc2cc(N3CCCCC3)nc(N(C)CCc3c[nH]c4ccccc34)n2)cc1 [Example 11] | 9
14 | CN(CCc1c[nH]c2ccccc12)c1nc(Nc2ccc(F)c(F)c2)cc(N2CCCCC2)n1 [Example 15] | 8
15 | Cc1ccc(Nc2cc(N(C)C)nc(N(C)CCc3c[nH]c4ccccc34)n2)cc1 [Example 77] | 6
16 | O=C1C(=Nc2cccc(Cl)c2)c2ccccc2N1c1ccccc1 [Example 94, 3-[(3-CHLOROPHENYL)IMINO]-1-PHENYL-1,3-DIHYDRO-2H-INDOL-2-ONE] | >30

Molecular target: T3, Human 5HT2A Receptor (Homo sapiens, UniProt P28223)
T3 construct: expressed in transfected cells; host or cells: COS-7 cells (pCEXV-3 vector, DEAE-dextran)
T3 sequence (P28223 whole entry): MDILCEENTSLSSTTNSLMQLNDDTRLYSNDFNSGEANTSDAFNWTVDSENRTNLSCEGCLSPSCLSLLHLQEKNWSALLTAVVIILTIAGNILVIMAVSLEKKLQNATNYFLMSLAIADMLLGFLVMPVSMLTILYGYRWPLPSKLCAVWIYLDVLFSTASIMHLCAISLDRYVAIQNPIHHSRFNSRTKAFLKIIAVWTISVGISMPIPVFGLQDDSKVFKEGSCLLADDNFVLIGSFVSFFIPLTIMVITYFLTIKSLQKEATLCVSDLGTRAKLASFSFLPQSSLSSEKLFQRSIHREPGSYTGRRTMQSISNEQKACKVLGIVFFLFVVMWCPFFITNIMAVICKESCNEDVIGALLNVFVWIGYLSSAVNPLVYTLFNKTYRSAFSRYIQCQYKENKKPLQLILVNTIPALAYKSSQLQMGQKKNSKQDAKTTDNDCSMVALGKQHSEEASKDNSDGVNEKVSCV
Experiment: Radioligand binding, 5HT2A receptor ([3H]ketanserin)
Details: Table 7; read-out: h5HT2A Ki
Description: Human 5HT2A Receptor: The coding sequence of the human 5HT2A receptor was obtained from a human brain cortex cDNA library, and cloned into the cloning site of pCEXV-3 eukaryotic expression vector. This construct was transfected into COS-7 cells by the DEAE-dextran method (Cullen, 1987). Cells were harvested after 72 hours and lysed by sonication in 5 mM Tris-HCl, 5 mM EDTA, pH 7.5. The cell lysates were subjected to centrifugation at 1000 rpm for 5 minutes at 4°C, and the supernatant was subjected to centrifugation at 30,000 x g for 20 minutes at 4°C. The pellet was suspended in 50 mM Tris-HCl buffer (pH 7.7 at room temperature) containing 10 mM MgS04, 0.5 mM EDTA, and 0.1% ascorbate. The affinity of compounds at 5HT2A receptors were determined in equilibrium competition binding assays using [^3H]ketanserin (1 nM). Nonspecific binding was defined by the addition of 10 µM mianserin. The bound radioligand was separated by filtration through GF/B filters using a cell harvester.
as §1

Row | Compound | Ki [µM]
17 | Cc1ccc(Nc2cc(N3CCCCC3)nc(N(C)CCc3c[nH]c4ccccc34)n2)cc1 [Example 11] | 6.71
18 | CN(CCc1c[nH]c2ccccc12)c1nc(Nc2ccc(F)c(F)c2)cc(N2CCCCC2)n1 [Example 15] | 11.3
19 | Cc1ccc(Nc2cc(N(C)C)nc(N(C)CCc3c[nH]c4ccccc34)n2)cc1 [Example 77] | 2.24
20 | O=C1C(=Nc2cccc(Cl)c2)c2ccccc2N1c1ccccc1 [Example 94, 3-[(3-CHLOROPHENYL)IMINO]-1-PHENYL-1,3-DIHYDRO-2H-INDOL-2-ONE] | > 50

Same assay, conditions: Table 8; Ki h5HT2A divided by Ki hGAL3

Row | Compound | selectivity ratio h5HT2A
21 | Cc1ccc(Nc2cc(N3CCCCC3)nc(N(C)CCc3c[nH]c4ccccc34)n2)cc1 [Example 11] | >30
22 | CN(CCc1c[nH]c2ccccc12)c1nc(Nc2ccc(F)c(F)c2)cc(N2CCCCC2)n1 [Example 15] | >100
23 | Cc1ccc(Nc2cc(N(C)C)nc(N(C)CCc3c[nH]c4ccccc34)n2)cc1 [Example 77] | 28
24 | O=C1C(=Nc2cccc(Cl)c2)c2ccccc2N1c1ccccc1 [Example 94, 3-[(3-CHLOROPHENYL)IMINO]-1-PHENYL-1,3-DIHYDRO-2H-INDOL-2-ONE] | >100

Molecular target: T4, rat D3 receptors (Rattus norvegicus, UniProt P19020)
T4 construct: purchased BioSignal, Inc. (Montreal, Canada)
T4 sequence (P19020 whole entry): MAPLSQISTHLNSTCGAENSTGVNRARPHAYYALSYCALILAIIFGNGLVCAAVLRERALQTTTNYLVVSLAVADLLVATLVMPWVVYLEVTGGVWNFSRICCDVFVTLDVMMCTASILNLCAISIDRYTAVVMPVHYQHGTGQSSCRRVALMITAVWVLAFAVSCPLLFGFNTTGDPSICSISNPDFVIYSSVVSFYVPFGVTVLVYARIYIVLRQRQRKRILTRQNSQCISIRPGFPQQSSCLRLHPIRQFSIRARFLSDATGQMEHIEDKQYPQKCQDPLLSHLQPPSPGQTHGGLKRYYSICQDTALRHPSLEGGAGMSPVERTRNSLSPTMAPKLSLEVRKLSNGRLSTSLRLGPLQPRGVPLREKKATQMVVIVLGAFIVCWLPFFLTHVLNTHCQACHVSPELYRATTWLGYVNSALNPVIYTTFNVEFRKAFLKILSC
Experiment: Radioligand binding, dopamine D3 receptor
Details: Table 9; read-out: rD3 Ki
Description: (§2) Other receptors: Cell membranes expressing human dopamine D1, D2, D4 and rat D3 receptors were purchased through BioSignal, Inc. (Montreal, Canada). Binding assays using the histamine H1 receptor; dopamine receptors; and α1A, α1E, and α2 adrenergic receptors may be carried out according to the procedures described in U.S. Patent No. 5,780,485, the disclosure of which is hereby incorporated by reference in its entirety into this application. Binding assays using the dopamine D5 receptor may be carried out according to the procedures described in U.S. Patent No. 5,882,855, the disclosure of which is hereby incorporated by reference in its entirety into this application. Binding assays for the human α1D adrenergic receptor may be carried out according to the procedures described in U.S. Patent No. 6,156,518, the disclosure of which is hereby incorporated by reference in its entirety into this application.
as §1

Row | Compound | Ki [nM]
25 | Cc1ccc(Nc2cc(N3CCCCC3)nc(N(C)CCc3c[nH]c4ccccc34)n2)cc1 [Example 11] | 2140
26 | CN(CCc1c[nH]c2ccccc12)c1nc(Nc2ccc(F)c(F)c2)cc(N2CCCCC2)n1 [Example 15] | 8810
27 | Cc1ccc(Nc2cc(N(C)C)nc(N(C)CCc3c[nH]c4ccccc34)n2)cc1 [Example 77] | 2720
28 | O=C1C(=Nc2cccc(Cl)c2)c2ccccc2N1c1ccccc1 [Example 94, 3-[(3-CHLOROPHENYL)IMINO]-1-PHENYL-1,3-DIHYDRO-2H-INDOL-2-ONE] | 423

Same assay, conditions: Table 10; Ki rD3 divided by Ki hGAL3

Row | Compound | selectivity ratio rD3
29 | Cc1ccc(Nc2cc(N3CCCCC3)nc(N(C)CCc3c[nH]c4ccccc34)n2)cc1 [Example 11] | 24
30 | CN(CCc1c[nH]c2ccccc12)c1nc(Nc2ccc(F)c(F)c2)cc(N2CCCCC2)n1 [Example 15] | >100
31 | Cc1ccc(Nc2cc(N(C)C)nc(N(C)CCc3c[nH]c4ccccc34)n2)cc1 [Example 77] | >30
32 | O=C1C(=Nc2cccc(Cl)c2)c2ccccc2N1c1ccccc1 [Example 94, 3-[(3-CHLOROPHENYL)IMINO]-1-PHENYL-1,3-DIHYDRO-2H-INDOL-2-ONE] | 9

Molecular target: T5, human α1A adrenoceptor (Homo sapiens, UniProt P35348)
T5 construct: expressed in transfected cells
T5 sequence (P35348 1-466): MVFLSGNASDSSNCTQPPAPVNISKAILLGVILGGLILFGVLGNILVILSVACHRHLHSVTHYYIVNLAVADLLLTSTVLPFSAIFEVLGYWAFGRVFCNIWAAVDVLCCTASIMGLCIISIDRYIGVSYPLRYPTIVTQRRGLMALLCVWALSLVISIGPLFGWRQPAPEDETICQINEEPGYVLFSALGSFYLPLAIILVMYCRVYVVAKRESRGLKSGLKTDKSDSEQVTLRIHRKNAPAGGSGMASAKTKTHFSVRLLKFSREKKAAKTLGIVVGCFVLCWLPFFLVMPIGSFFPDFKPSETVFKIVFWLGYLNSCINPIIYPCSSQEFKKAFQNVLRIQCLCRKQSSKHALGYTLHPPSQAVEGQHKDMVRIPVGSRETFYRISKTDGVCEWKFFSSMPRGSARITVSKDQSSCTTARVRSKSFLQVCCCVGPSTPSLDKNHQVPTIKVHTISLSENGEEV
Experiment: Radioligand binding, α1A adrenergic receptor
Details: Table 9; read-out: hα1A Ki
Description: as §2, §1

Row | Compound | Ki [nM]
33 | Cc1ccc(Nc2cc(N3CCCCC3)nc(N(C)CCc3c[nH]c4ccccc34)n2)cc1 [Example 11] | 926
34 | CN(CCc1c[nH]c2ccccc12)c1nc(Nc2ccc(F)c(F)c2)cc(N2CCCCC2)n1 [Example 15] | 3390
35 | Cc1ccc(Nc2cc(N(C)C)nc(N(C)CCc3c[nH]c4ccccc34)n2)cc1 [Example 77] | 834
36 | O=C1C(=Nc2cccc(Cl)c2)c2ccccc2N1c1ccccc1 [Example 94, 3-[(3-CHLOROPHENYL)IMINO]-1-PHENYL-1,3-DIHYDRO-2H-INDOL-2-ONE] | 12700

Same assay, conditions: Table 10; Ki hα1A divided by Ki hGAL3

Row | Compound | selectivity ratio hα1A
37 | Cc1ccc(Nc2cc(N3CCCCC3)nc(N(C)CCc3c[nH]c4ccccc34)n2)cc1 [Example 11] | 10
38 | CN(CCc1c[nH]c2ccccc12)c1nc(Nc2ccc(F)c(F)c2)cc(N2CCCCC2)n1 [Example 15] | 46
39 | Cc1ccc(Nc2cc(N(C)C)nc(N(C)CCc3c[nH]c4ccccc34)n2)cc1 [Example 77] | 11
40 | O=C1C(=Nc2cccc(Cl)c2)c2ccccc2N1c1ccccc1 [Example 94, 3-[(3-CHLOROPHENYL)IMINO]-1-PHENYL-1,3-DIHYDRO-2H-INDOL-2-ONE] | >100

Molecular target: T6, human dopamine D2 (Homo sapiens, UniProt P14416)
T6 construct: purchased BioSignal, Inc. (Montreal, Canada)
T6 sequence (P14416 whole entry): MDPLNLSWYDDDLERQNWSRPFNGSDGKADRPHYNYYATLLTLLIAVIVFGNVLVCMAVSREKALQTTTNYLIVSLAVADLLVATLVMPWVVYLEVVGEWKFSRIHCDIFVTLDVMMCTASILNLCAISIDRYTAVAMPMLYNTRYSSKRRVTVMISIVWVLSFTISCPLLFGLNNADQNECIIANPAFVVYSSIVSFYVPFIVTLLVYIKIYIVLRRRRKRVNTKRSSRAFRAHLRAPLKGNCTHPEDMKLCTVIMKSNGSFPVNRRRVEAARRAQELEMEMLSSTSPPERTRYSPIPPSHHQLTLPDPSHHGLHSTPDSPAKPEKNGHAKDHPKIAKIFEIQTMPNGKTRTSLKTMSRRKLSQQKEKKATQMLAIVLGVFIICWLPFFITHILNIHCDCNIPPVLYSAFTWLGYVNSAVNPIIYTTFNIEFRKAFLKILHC
Experiment: Radioligand binding, dopamine D2 receptor
Details: Table 9; read-out: hD2 Ki
Description: as §2, §1

Row | Compound | Ki [nM]
41 | Cc1ccc(Nc2cc(N3CCCCC3)nc(N(C)CCc3c[nH]c4ccccc34)n2)cc1 [Example 11] | 782
42 | CN(CCc1c[nH]c2ccccc12)c1nc(Nc2ccc(F)c(F)c2)cc(N2CCCCC2)n1 [Example 15] | 2180
43 | Cc1ccc(Nc2cc(N(C)C)nc(N(C)CCc3c[nH]c4ccccc34)n2)cc1 [Example 77] | 910
44 | O=C1C(=Nc2cccc(Cl)c2)c2ccccc2N1c1ccccc1 [Example 94, 3-[(3-CHLOROPHENYL)IMINO]-1-PHENYL-1,3-DIHYDRO-2H-INDOL-2-ONE] | 6250

Same assay, conditions: Table 10; Ki hD2 divided by Ki hGAL3

Row | Compound | selectivity ratio hD2
45 | Cc1ccc(Nc2cc(N3CCCCC3)nc(N(C)CCc3c[nH]c4ccccc34)n2)cc1 [Example 11] | 9
46 | CN(CCc1c[nH]c2ccccc12)c1nc(Nc2ccc(F)c(F)c2)cc(N2CCCCC2)n1 [Example 15] | 30
47 | Cc1ccc(Nc2cc(N(C)C)nc(N(C)CCc3c[nH]c4ccccc34)n2)cc1 [Example 77] | 11
48 | O=C1C(=Nc2cccc(Cl)c2)c2ccccc2N1c1ccccc1 [Example 94, 3-[(3-CHLOROPHENYL)IMINO]-1-PHENYL-1,3-DIHYDRO-2H-INDOL-2-ONE] | >100
